Test results as given in US20070104716A1, “Methods for controlling pathological angiogenesis by inhibition of a6b4 integrin” (SLOAN-KETTERING INSTITUTE FOR CANCER RESEARCH, priority 2003, published 2007).

Test system: HUVECs expressing wild-type α6β4
Experiment: in vitro wound closure (migration) assay on laminin-5 in response to bFGF
Format: cell-based, Human
Conditions: plated on laminin-5, bFGF, wound closure at 8 hours (FIG. 4A)
Experimental: When indicated, migrating cells were treated with the NF-kB inhibitor BAY 11-7082 ([…]) or the MAPK inhibitor PD98059 (50 μM).
To examine the effect of α6β4 signaling on endothelial cell migration, parental HUVECS and their derivatives expressing either wild-type or mutant α6β4 were plated on laminin-5 at confluency and subjected to in vitro wound assay. Expression of wild-type α6β4 increased endothelial cell migration in response to bFGF.
To examine the role of ERK and NF-OB signaling in endothelial cell migration, HUVECs expressing wild-type α6β4 were subjected to in vitro wound closure assay in the presence of the MEK inhibitor PD98059 or the NF-kB inhibitor BAYI 1-072.
HUVECs were electroporated with equimolar amounts of plasmids encoding α6 and either β4 or β4-1355T (Dans et al., 2001), deprived of growth factors for 18 hours, and then panned on plates coated with the anti-β4 mAb 3E1. Bound cells were washed with PBS and recovered by trypsin-EDTA treatment. For in vitro wound assays, equal numbers of cells expressing wild-type β4 or mutant β4-1355T were plated on dishes coated with laminin-5, grown until confluent, and starved. […] Wound closure was monitored by digital photography. […] HUVECS Invasion was quantified 72 hours later by counting the average number of capillary-like structures per microcarrier bead.

| Structure (SMILES) | migration of α6β4-expressing HUVECs (wound closure) (PD98059 50 μM) | migration of α6β4-expressing HUVECs (wound closure) (BAY 11-7082 12.5PM) |
| --- | --- | --- |
| COc1cccc(-c2cc(=O)c3ccccc3o2)c1N [PD98059] | reduced the migration of α6β4-expressing HUVECs to levels similar to those displayed by control HUVECs or HUVECs expressing mutant α6β4 |  |
| Cc1ccc(S(=O)(=O)/C=C/C#N)cc1 [BAYI 1-072] |  | reduced the migration of α6β4-expressing HUVECs to levels similar to those displayed by control HUVECs or HUVECs expressing mutant α6β4 |
